According to ChEMBL document CHEMBL1201862, “PubChem BioAssay data set” (2004):
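48-hour exposure; five concentrations; linearly interpolated endpoints. GI50 is the concentration that inhibits growth by half.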 Calls of active or inactive are those of the source. No stated cut-off is given here; in the data, active = GI50 up to about 1.1 µM and inactive = higher.

Experiments:
Assay in all cases: NCI-60 cell line screen, 48 h
A498 = system: A498
A549 = system: A549
SW-620 = system: SW-620
LOX IMVI = system: LOX IMVI
NCI-H460 = system: NCI-H460
MDA-MB-435 = system: MDA-MB-435
UO-31 = system: UO-31
OVCAR-3 = system: OVCAR-3
M14 = system: M14
SF-539 = system: SF-539
ACHN = system: ACHN
HOP-62 = system: HOP-62
COLO 205 = system: COLO 205
MCF7 = system: MCF7
DU-145 = system: DU-145
EKVX = system: EKVX
K562 = system: K562
Malme-3M = system: Malme-3M
SK-MEL-28 = system: SK-MEL-28
HOP-92 = system: HOP-92
CAKI-1 = system: CAKI-1
SK-MEL-5 = system: SK-MEL-5
BT-549 = system: BT-549
PC-3 = system: PC-3
U-251 = system: U-251
OVCAR-8 = system: OVCAR-8
MDA-N = system: MDA-N
UACC-257 = system: UACC-257
SF-268 = system: SF-268
KM12 = system: KM12
RPMI-8226 = system: RPMI-8226
IGROV-1 = system: IGROV-1
NCI/ADR-RES = system: NCI/ADR-RES
HCT-116 = system: HCT-116
NCI-H226 = system: NCI-H226
786-0 = system: 786-0
OVCAR-5 = system: OVCAR-5
MOLT-4 = system: MOLT-4
SN12C = system: SN12C
CCRF-CEM = system: CCRF-CEM
MDA-MB-231 = system: MDA-MB-231
NCI-H23 = system: NCI-H23
Hs-578T = system: Hs-578T
RXF 393 = system: RXF 393
SK-OV-3 = system: SK-OV-3
UACC-62 = system: UACC-62
HCT-15 = system: HCT-15
NCI-H522 = system: NCI-H522
SR = system: SR
T47D = system: T47D
SNB-75 = system: SNB-75
SF-295 = system: SF-295
SNB-19 = system: SNB-19
TK-10 = system: TK-10
HT-29 = system: HT-29
OVCAR-4 = system: OVCAR-4
HL-60 = system: HL-60
HCC 2998 = system: HCC 2998
SK-MEL-2 = system: SK-MEL-2

C/C(=C/CC[C@](C)(OC1OC(CO)C(O)C(O)C1O)[C@H]1CC[C@]2(C)[C@@H]1CC[C@@H]1[C@@]3(C)CC[C@H](O)C(C)(C)[C@@H]3C[C@H](O)[C@]12C)CO (stereo partly drawn)
GI50 (A498): 60 µM (inactive) | GI50 (A549): 39.5 µM (inactive) | GI50 (SW-620): 27.4 µM (inactive) | GI50 (LOX IMVI): 18.1 µM (inactive) | GI50 (NCI-H460): 16.8 µM (inactive) | GI50 (MDA-MB-435): 36 µM (inactive) | GI50 (UO-31): 37.9 µM (inactive) | GI50 (OVCAR-3): 24.2 µM (inactive) | GI50 (M14): 37.5 µM (inactive) | GI50 (SF-539): 10.4 µM (inactive) | GI50 (ACHN): 40.6 µM (inactive) | GI50 (HOP-62): 26.3 µM (inactive) | GI50 (COLO 205): 21.3 µM (inactive) | GI50 (MCF7): 34.8 µM (inactive) | GI50 (DU-145): 85.7 µM (inactive) | GI50 (EKVX): 60.8 µM (inactive) | GI50 (K562): 13.4 µM (inactive) | GI50 (Malme-3M): 21.6 µM (inactive) | GI50 (SK-MEL-28): 18.2 µM (inactive) | GI50 (HOP-92): 27.4 µM (inactive) | GI50 (CAKI-1): 31.7 µM (inactive) | GI50 (SK-MEL-5): 18.2 µM (inactive) | GI50 (BT-549): 12.5 µM (inactive) | GI50 (PC-3): 31.5 µM (inactive) | GI50 (U-251): 13.6 µM (inactive) | GI50 (OVCAR-8): 33.3 µM (inactive) | GI50 (MDA-N): 24.2 µM (inactive) | GI50 (UACC-257): 22.6 µM (inactive) | GI50 (SF-268): 21.8 µM (inactive) | GI50 (KM12): 22.7 µM (inactive) | GI50 (RPMI-8226): 5.4 µM (inactive) | GI50 (IGROV-1): 38 µM (inactive) | GI50 (NCI/ADR-RES): 47.4 µM (inactive) | GI50 (HCT-116): 18.2 µM (inactive) | GI50 (NCI-H226): 26.8 µM (inactive) | GI50 (786-0): 12.6 µM (inactive) | GI50 (OVCAR-5): 49.8 µM (inactive) | GI50 (MOLT-4): 12.2 µM (inactive) | GI50 (SN12C): 22 µM (inactive) | GI50 (CCRF-CEM): 27.9 µM (inactive) | GI50 (MDA-MB-231): 31.3 µM (inactive) | GI50 (NCI-H23): 45.1 µM (inactive) | GI50 (Hs-578T): 16.2 µM (inactive) | GI50 (RXF 393): 3.46 µM (inactive) | GI50 (SK-OV-3): 21.9 µM (inactive) | GI50 (UACC-62): 19.1 µM (inactive) | GI50 (HCT-15): 18.1 µM | GI50 (NCI-H522): 17.9 µM (inactive) | GI50 (SR): 22.2 µM (inactive) | GI50 (T47D): 16.9 µM (inactive) | GI50 (SNB-75): 8.43 µM (inactive) | GI50 (SF-295): 14.8 µM (inactive) | GI50 (SNB-19): 22 µM (inactive) | GI50 (TK-10): 55.7 µM (inactive) | GI50 (HT-29): 11.6 µM (inactive) | GI50 (OVCAR-4): 51.9 µM (inactive) | GI50 (HL-60): 16.5 µM (inactive)

COc1c(OC/C=C(\C)CCC=C(C)C)ccc2ccc(=O)oc12 [COLLININ]
GI50 (A498): > 100 µM (inactive) | GI50 (A549): > 100 µM (inactive) | GI50 (SW-620): > 100 µM (inactive) | GI50 (LOX IMVI): > 100 µM (inactive) | GI50 (NCI-H460): > 10 µM (inactive) | GI50 (MDA-MB-435): > 100 µM (inactive) | GI50 (UO-31): > 100 µM (inactive) | GI50 (OVCAR-3): > 100 µM (inactive) | GI50 (M14): > 100 µM (inactive) | GI50 (SF-539): > 100 µM (inactive) | GI50 (ACHN): > 100 µM (inactive) | GI50 (HOP-62): > 100 µM (inactive) | GI50 (COLO 205): > 100 µM (inactive) | GI50 (MCF7): > 100 µM (inactive) | GI50 (DU-145): > 100 µM (inactive) | GI50 (EKVX): 83.9 µM (inactive) | GI50 (K562): > 100 µM (inactive) | GI50 (SK-MEL-28): > 100 µM (inactive) | GI50 (HOP-92): 77.4 µM (inactive) | GI50 (CAKI-1): > 100 µM (inactive) | GI50 (SK-MEL-5): 48.1 µM (inactive) | GI50 (BT-549): 53.3 µM (inactive) | GI50 (PC-3): 24.2 µM (inactive) | GI50 (U-251): > 100 µM (inactive) | GI50 (OVCAR-8): > 100 µM (inactive) | GI50 (MDA-N): > 100 µM (inactive) | GI50 (UACC-257): > 100 µM (inactive) | GI50 (SF-268): 96.8 µM (inactive) | GI50 (KM12): 43.6 µM (inactive) | GI50 (RPMI-8226): > 100 µM (inactive) | GI50 (IGROV-1): > 100 µM (inactive) | GI50 (NCI/ADR-RES): 95.9 µM (inactive) | GI50 (HCT-116): > 100 µM (inactive) | GI50 (786-0): > 100 µM (inactive) | GI50 (OVCAR-5): > 100 µM (inactive) | GI50 (MOLT-4): 56.5 µM (inactive) | GI50 (SN12C): > 100 µM (inactive) | GI50 (CCRF-CEM): > 100 µM (inactive) | GI50 (MDA-MB-231): > 100 µM (inactive) | GI50 (HCC 2998): > 100 µM (inactive) | GI50 (NCI-H23): > 100 µM (inactive) | GI50 (Hs-578T): 90.4 µM (inactive) | GI50 (SK-OV-3): > 100 µM (inactive) | GI50 (UACC-62): 94.2 µM (inactive) | GI50 (SK-MEL-2): > 100 µM (inactive) | GI50 (HCT-15): 64.9 µM | GI50 (NCI-H522): > 100 µM (inactive) | GI50 (SR): 61.5 µM (inactive) | GI50 (T47D): 62.5 µM (inactive) | GI50 (SNB-75): > 100 µM (inactive) | GI50 (SF-295): > 100 µM (inactive) | GI50 (SNB-19): 65.2 µM (inactive) | GI50 (TK-10): > 100 µM (inactive) | GI50 (HT-29): 94.4 µM (inactive) | GI50 (OVCAR-4): 51.8 µM (inactive) | GI50 (HL-60): 43.4 µM (inactive)
